From paper PMC5120274, “Characterization of the Annonaceous acetogenin, annonacinone, a natural product inhibitor of plasminogen activator inhibitor-1” (Scientific Reports, 2016)
Where “and” joins values, the source holds several entries; their conditions need not be identical. Equal values may be shown once.

What was measured:
tPA = system: T1, tPA; assay: tPA-catalyzed substrate hydrolysis without PAI-1 (control); format: biochemical, human; settings: control without PAI-1
T1 construct: purchased Stago BNL (Asnières sur Seine, FR)
Protocol: Compounds from our local collection BioCIS and from the Prestwick compound library (Prestwick chemicals, Illkirch, FR), a collection containing only FDA approved drugs (around 4000 compounds in total) were tested in a chromogenic assay measuring the […] Compounds (20 μL, final concentration 50 μM, 1% DMSO) were dispensed in a 96 well half area Greiner plate. […] At the end of pre-incubation time, 90 μL of the mixture were added to another 96 well half area plate containing 10 μL tPA (final concentration 10 nM). The kinetic was then measured at 405 nm for 45 min at 37 °C in an Envision microplate reader. Progress curves were fitted using the pseudo first order equation to determine the apparent rate constant k.

human α1-antitrypsin = system: T2, human α1-antitrypsin; assay: continuous chromogenic assay: inhibition of neutrophil elastase by α1-antitrypsin; format: biochemical; settings: α1-antitrypsin pre-incubated with 50 μM annonacinone 20 min 37 °C; untreated 1.2 × 10^−3
T2 construct: purchased Sigma
Protocol: (§1) 5 μM human α1-antitrypsin (Sigma) or human antithrombin (Aclotin®, LFB) were incubated with 50 μM annonacinone (or 0.5% DMSO in reaction buffer as control) for 20 min at 37 °C. The mixtures containing α1-antitrypsin were diluted in N-Methoxysuccinyl-Ala-Ala-Pro-Val p-nitroanilide (Sigma) containing solution and substrate hydrolysis kinetic was triggered by addition of neutrophil elastase (Sigma) to a final volume of 100 μL containing 13 nM α1-antitrypsin, 130 nM annonacinone, 82 μM chromogenic substrate and 5 nM neutrophil elastase. The mixtures containing antithrombin were diluted in fondaparinux (Arixtra®, GlaxoSmithKline) and CS-11(22)-FXa (Hyphen Biomed) containing solution and substrate hydrolysis kinetic was triggered by addition of factor Xa (Stago BNL) to a final volume of 100 μL containing 51 nM antithrombin, 510 nM annonacinone, 200 μM chromogenic substrate, 5 μM fondaparinux and 2 nM factor Xa.

human antithrombin = system: T3, human antithrombin; assay: continuous chromogenic assay: fondaparinux-catalyzed inhibition of factor Xa by antithrombin; format: biochemical; settings: antithrombin pre-incubated with 50 μM annonacinone 20 min 37 °C; control buffer 7.9 × 10^−3
T3 construct: purchased LFB (Aclotin)
Protocol: as §1

PAI-1 = biological target: T4, PAI-1 (Homo sapiens, UniProt P05121); assay: thromboelastography (TEG) on pooled human plasma with tPA and PAI-1; format: biochemical
T4 construct: purchased Stago BNL (Asnières sur Seine, FR)
Protocol: 20 μL of CaCl2 (0.2 M), 10 μL of PAI-1 (final concentration 22 nM) and 10 μL of tested compounds were added in a TEG cup and pre-incubated for 20 min at room temperature. On the other hand, 1 mL of pooled citrated normal human plasma (pool of at least 10 healthy donors) was added to a vial containing 20 μL of Kaolin. 680 μl of the plasma/Kaolin mixture were then added to 20 μL of tPA (final concentration 9 nM). At the end of pre-incubation time, 320 μL of the plasma/tPA/kaolin mixture were transferred into the TEG cup and the thromboelastogram measured.

PAI-1 R118A = system: T5, PAI-1 R118A; assay: chromogenic screening assay with PAI-1 mutant R118A; format: biochemical
T5 construct: made in house
Protocol: (§2) Compounds from our local collection BioCIS and from the Prestwick compound library (Prestwick chemicals, Illkirch, FR), a collection containing only FDA approved drugs (around 4000 compounds in total) were tested in a chromogenic assay measuring the inhibition rate of tPA-catalyzed spectrozyme® tPA hydrolysis in the presence of PAI-1. Compounds (20 μL, final concentration 50 μM, 1% DMSO) were dispensed in a 96 well half area Greiner plate. A mixture containing 20 μL of PAI-1 (final concentration 20 nM) and 80 μL of Spectrozyme-tPA (final concentration 400 μM) was then added, and the mixture pre-incubated for 45 minutes at 37 °C. At the end of pre-incubation time, 90 μL of the mixture were added to another 96 well half area plate containing 10 μL tPA (final concentration 10 nM). The kinetic was then measured at 405 nm for 45 min at 37 °C in an Envision microplate reader. Progress curves were fitted using the pseudo first order equation to determine the apparent rate constant k.
Mutants were constructed as previously described. […] The effect of annonacinone was measured at 50 μM for each mutant in our chromogenic screening assay. […] For each mutant, the ratio between the apparent rate constants with and without 50 μM annonacinone were calculated and then compared to that of PAI-1 WT to determine the % of annonacinone activity.

PAI-1 K122A = system: T6, PAI-1 K122A; assay: chromogenic screening assay with PAI-1 mutant K122A; format: biochemical; settings: for Annonacinone activity 50 μM (% WT): ratio of kapp relative to WT (100%)
T6 construct: made in house
Protocol: as §2
Mutants were constructed as previously described. Based on computer modelling, the following mutants were prepared, T79A, T94A, D95A, R118A and K122A. The effect of annonacinone was measured at 50 μM for each mutant in our chromogenic screening assay. Progress curves were fitted using the pseudo first order equation to determine the apparent rate constant k. For each mutant, the ratio between the apparent rate constants with and without 50 μM annonacinone were calculated and then compared to that of PAI-1 WT to determine the % of annonacinone activity.

[1] = compound 50 μM, tPA 9 nM + PAI-1 22 nM

T4 sequence (P05121 24-402): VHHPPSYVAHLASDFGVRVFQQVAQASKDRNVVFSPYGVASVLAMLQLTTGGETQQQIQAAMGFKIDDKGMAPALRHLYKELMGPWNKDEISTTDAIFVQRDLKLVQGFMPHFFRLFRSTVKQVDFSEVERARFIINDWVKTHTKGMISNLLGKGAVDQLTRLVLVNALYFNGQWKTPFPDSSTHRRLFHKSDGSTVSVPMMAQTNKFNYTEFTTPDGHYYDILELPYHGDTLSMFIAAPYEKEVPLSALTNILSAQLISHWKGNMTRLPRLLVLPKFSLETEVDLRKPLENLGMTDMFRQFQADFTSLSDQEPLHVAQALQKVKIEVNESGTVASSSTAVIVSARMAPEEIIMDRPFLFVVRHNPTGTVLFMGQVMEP

Q: Which “effect on tPA-catalyzed substrate hydrolysis without PAI-1” value (tPA) does the source give for `CCCCCCCCCCCC[C@@H](O)[C@H]1CC[C@H]([C@H](O)CCCCC(=O)CCCCC[C@@H](O)CC2=C[C@H](C)OC2=O)O1` [Annonacinone] here?
A: The value was “no effect”.

Q: And the “kapp of neutrophil elastase inhibition by α1-antitrypsin” value (human α1-antitrypsin)?
A: Its value is 0.0011 s⁻¹.

Q: What about the “kapp of factor Xa inhibition by fondaparinux-bound antithrombin” value (human antithrombin) of the same molecule?
A: Its value is 0.0083 s⁻¹.

Q: And the IC50 (PAI-1; LY60 of three independent experiments plotted against concentration, read-out: IC50 from LY60 values)?
A: Its IC50 is 2.3 ± 1 µM.

Q: And the “effect on maximal amplitude (MA) and parameters of clot formation (R, K, angle)” value (PAI-1; TEG, human plasma)?
A: The value was “no significant effect”.

Q: And the Angle (PAI-1; [1])?
A: Its Angle is 73.5 °.

Q: And the “K (clot formation time)” value (PAI-1; [1])?
A: The value was 1.6 min.

Q: What about the “MA (maximal amplitude)” value (PAI-1; [1]) of the same molecule?
A: The value was 21.4 mm.

Q: And the “R (clotting time)” value (PAI-1; [1])?
A: The value was 6 min.

Q: And the “LY30 (clot lysis 30 minutes after maximal amplitude)” value (PAI-1; compound 50 μM, tPA 9 nM + PAI-1 22 nM, tPA alone 94.3%, tPA + PAI-1 0%)?
A: The value was 87.1%.

Q: And the “LY60 (clot lysis 60 minutes after maximal amplitude)” value (PAI-1; compound 50 μM, tPA 9 nM + PAI-1 22 nM, tPA alone 96.8%, tPA + PAI-1 0%)?
A: Its value is 94% and 93.6%.

Q: What about the “kapp Annonacinone 50 μM” value (PAI-1 R118A; DMSO 1% 6,0 ± 0,9 × 10^−3, n = 4) of the same molecule?
A: Its value is 3,4 ± 0,3 × 10^−4 s^−1.

Q: And the “Annonacinone activity 50 μM (% WT)” value (PAI-1 R118A; ratio of kapp relative to WT (100%))?
A: The value was 264 ± 40 % WT.

Q: And the “kapp Annonacinone 50 μM” value (PAI-1 K122A; DMSO 1% 1,9 ± 0,3 × 10^−3, n = 4)?
A: The value was 3,5 ± 0,9 × 10^−4 s^−1.

Q: And the “Annonacinone activity 50 μM (% WT)” value (PAI-1 K122A)?
A: The value was 80 ± 13 % WT.

Q: What about the “Annonacinone activity 50 μM (% WT)” value (PAI-1 K122A; listed as annonacinone) of the same molecule?
A: Its value is “no effect”.
